This is an account of results in patent US20110021556A1, “PYRROLIDINYL DERIVATIVES AND USES THEREOF” (Hoffman-La Roche, Inc., priority 2008, published 2011).

Structures can show the parent of a compound that is named as a salt.

The molecule `c1ccc(CC2(c3ccc4[nH]ccc4c3)CCNC2)nc1` (centres unmarked) registered a melting point of 169.9 to 171.1 °C. Then `c1ccc(CC2(c3ccc4sccc4c3)CCNC2)cc1` (centres unmarked) (as salt: hydrochloride), with 120.9 to 123 °C.

For orientation: melting point means the temperature, or range, at which the solid turns liquid.
